{
  "source": "PubChem BioAssay AID2060619",
  "about": "(Molecular Pharmacology Branch, DTP, NCI, 2025)",
  "test_system": "323965-272-R-J2-PDC complex spheroid viability",
  "test": "Anticancer human tumor 323965-272-R-J2-PDC patient-derived pancreatic carcinoma cell line growth inhibition [CLK]",
  "conditions": "for viability, T/C: stronger effect = lower value",
  "source_text": "A high-throughput screen of multi-cell type tumor spheroids was designed to identify active combinations of […] and targeted small molecules. Complex spheroids include a stromal component modeled by human endothelial cells (HUVEC) and fibroblasts modeled by human mesenchymal stem cells (MSCs). The concentration ranges selected for each drug and investigational agent were based upon clinically achievable concentrations if the clinical Cmax of the agent was known.\nCompounds. The drugs and investigational agents: cirtuvivint (SM08502; NSC835563), CC-671 (NSC850746), vemurafenib (NSC761431), tapotoclax (NSC804041), sotorasib (NSC818433), adagrasib (NSC831453), MRTX-1133 (NSC836407), BAY2416964 (NSC825713), copanlisib (NSC816437), inavolisib (NSC800729), abemaciclib (NSC768073), osimertinib (NSC779217), entinostat (NSC756642), eltanexor (KPT-8602, NSC794443), venetoclax (NSC766270), ceralasertib (NSC777638), bortezomib (NSC756655), olaparib (NSC753686), talazoparib (NSC767125), alisertib (NSC759677), peposertib (NSC802822), gemcitabine (NSC613327), 5-fluorouracil (NSC19893), SN-38 (NSC673596), oxaliplatin (NSC266046), paclitaxel (NSC125973), and doxorubicin (NSC123127), were obtained from the National Cancer Institute (NCI) Developmental Therapeutics Program Chemical Repository. The FDA-approved anticancer drug set is available from the Developmental Therapeutics Program at https://dtp.cancer.gov/organization/dscb/obtaining/available plates.htm. […] The stock solutions were prepared in dimethyl sulfoxide (DMSO, Sigma-Aldrich, St. Louis, MO, cat. D2650), except for the platinum complexes which were prepared in saline (Quality Biological, Gaithersburg, MD, cat. 114-055-101), at 800-fold the tested concentration and stored at -70 degrees C prior to their use. All drugs and investigational agents were tested over a range starting from a high concentration at or near the clinical Cmax and decreasing in half-log increments. If the clinical Cmax for an agent had not been determined, the highest concentration tested was 10 microM.\nCell Culture. All cells were maintained in an incubator at 37 degrees C and 5% CO2 with 95% humidity. The PDC lines were cultured according to standard operating procedures established by the NCI PDMR. Briefly, all PDCs were thawed and cultured in Matrigel-coated flasks prepared with a working solution of 1X Ham's F-12 nutrient mix, without supplementation (Invitrogen, Waltham, MA, cat. 11765054), 100 U/mL penicillin-streptomycin (Invitrogen, cat. 15140122), and 2.5% Matrigel (Corning Inc., Corning, NY, cat. 354248) for the first three passages. The 947758-054-R-J2-PDC line was cultured in 6B/Colon 1A media, which includes advanced DMEM/F-12 (Thermo Fisher Scientific, cat. 12634028), 10 mM HEPES (Thermo Fisher Scientific, cat. 15630080), 1X GlutaMAX supplement (Thermo Fisher Scientific, cat. 35050061), 0.1 mg/mL primocin (InvivoGen, cat. ant-pm-2), 10% defined fetal bovine serum, heat inactivated (HyClone Laboratories Inc., cat. SH30070.03HI), 1.25 mM N-Acetyl-L-cysteine (Sigma-Aldrich, cat. A9165), 10 mM nicotinamide (Sigma-Aldrich, cat. N0636), 1X B-27 supplement (Thermo Fisher Scientific, cat. 17504044), 1X N-2 supplement (Thermo Fisher Scientific, cat. 17502048), and 10 microM Y-27632 dihydrochloride (Tocris Bioscience, cat. 1254). The 876862-298-R-J1-PDC was cultured in 6E media, which includes all 6B/Colon 1A media components plus 50% L-WRN conditioned media (ATCC, cat. CRL-3276), 50 ng/mL recombinant human EGF recombinant protein (hEGF; Thermo Fisher Scientific, cat. PHG0311), 10 ng/mL recombinant human fibroblast growth factor 10 (hGFG-10; PeproTech, cat. 100-26), 1 ng/mL recombinant human fibroblast growth factor 2 (hFGF-2; PeproTech, cat. 100-18B), and 1 µM prostaglandin E2 (PGE2; Tocris, cat. 2296). The 227483-062-R1-J1-PDC line was cultured in Panc media, containing all 6E components except hFGF-2, with the addition of 500 nM SB-431542 (Selleckchem, cat. S1067) and 10 nM gastrin (Tocris, cat. 3006). […]",
  "note": "Several values for one entry are separate records, joined by “and”; a condition that tells them apart may be missing. Equal entries are not always repeated.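 Also: spheroids exposed to agents for seven days before readout.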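 For viability, T/C in this document: percent of DMSO vehicle control wells so 100% = untreated growth.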",
  "data": [
    {"compound": "CNC(=O)c1ccc(Nc2nc(OC3CCCC3)c3c(-c4ccc5nc(C)oc5c4)c[nH]c3n2)c(OC)c1", "values": [
      {"measurement": "viability, T/C", "setting": "compound 0.1 µM", "value": "87.2% [middle of 12 runs]"},
      {"measurement": "viability, T/C", "setting": "compound 0.316 µM", "value": "65.7% [middle of 12 runs]"},
      {"measurement": "viability, T/C", "setting": "compound 1 µM", "value": "49.8% [middle of 12 runs]"},
      {"measurement": "viability, T/C", "setting": "compound 3.16 µM", "value": "44.7% [middle of 12 runs]"},
      {"measurement": "viability, T/C", "setting": "compound 10 µM", "value": "47.2% [middle of 12 runs]"}
    ]},
    {"compound": "COc1ccc([C@@H](O)c2cc(-c3ncnc4cc(N5CCOCC5)ccc34)c(F)cc2Cl)nn1", "values": [
      {"measurement": "viability, T/C", "setting": "compound 0.0316 µM", "value": "105% and 109%"},
      {"measurement": "viability, T/C", "setting": "compound 0.1 µM", "value": "116% and 106%"},
      {"measurement": "viability, T/C", "setting": "compound 0.316 µM", "value": "110% and 95.9%"},
      {"measurement": "viability, T/C", "setting": "compound 1 µM", "value": "92.8% and 92.9%"},
      {"measurement": "viability, T/C", "setting": "compound 3.16 µM", "value": "79.5% and 68.8%"},
      {"measurement": "viability, T/C", "setting": "compound 10 µM", "value": "50.6% and 50.3%"},
      {"measurement": "IC50", "setting": "curve of compound", "value": "> 10 µM and 9.92 µM"}
    ]},
    {"compound": "COc1cccc2c1C(=O)c1c(O)c3c(c(O)c1C2=O)CC(O)(C(=O)CO)CC3OC1CC(N)C(O)C(C)O1", "note": "(stereo unspecified)", "values": [
      {"measurement": "viability, T/C", "setting": "compound 0.0316 µM", "value": "87.4% and 66.2%"},
      {"measurement": "viability, T/C", "setting": "compound 0.1 µM", "value": "40.6% and 41.4%"},
      {"measurement": "viability, T/C", "setting": "compound 0.316 µM", "value": "38.4% and 37%"},
      {"measurement": "viability, T/C", "setting": "compound 1 µM", "value": "44.7% and 30.5%"},
      {"measurement": "viability, T/C", "setting": "compound 3.16 µM", "value": "30.1% and 21.3%"},
      {"measurement": "viability, T/C", "setting": "compound 10 µM", "value": "2.57% and 0.82%"},
      {"measurement": "IC50", "setting": "curve of compound", "value": "0.24 µM and 0.0976 µM"}
    ]},
    {"compound": "C=CC(=O)N1CCN(c2nc(=O)n(-c3c(C)ccnc3C(C)C)c3nc(-c4c(O)cccc4F)c(F)cc23)C(C)C1", "note": "(stereo unspecified) + CN1CCN(c2cc(C(=O)Nc3cc4cc(-c5cnn(C)c5)ccc4cn3)ccn2)CC1", "values": [
      {"measurement": "IC50", "setting": "curve of first compound, second compound 0.0316 µM", "value": "> 10", "unit": "µM"},
      {"measurement": "IC50", "setting": "curve of first compound, second compound 0.1 µM", "value": "< 0.0316", "unit": "µM"},
      {"measurement": "IC50", "setting": "curve of first compound, second compound 0.316 µM", "value": "< 0.0316", "unit": "µM"},
      {"measurement": "IC50", "setting": "curve of first compound, second compound 1 µM", "value": "< 0.0316", "unit": "µM"},
      {"measurement": "IC50", "setting": "curve of first compound, second compound 3.16 µM", "value": "< 0.0316", "unit": "µM"},
      {"measurement": "IC50", "setting": "curve of first compound, second compound 10 µM", "value": "< 0.0316", "unit": "µM"},
      {"measurement": "viability, T/C", "setting": "second compound 0.0316 µM, first compound 0.0316 µM", "value": 63, "unit": "%"},
      {"measurement": "viability, T/C", "setting": "second compound 0.0316 µM, first compound 0.1 µM", "value": 64.3, "unit": "%"},
      {"measurement": "viability, T/C", "setting": "second compound 0.0316 µM, first compound 0.316 µM", "value": 55, "unit": "%"},
      {"measurement": "viability, T/C", "setting": "second compound 0.0316 µM, first compound 1 µM", "value": 63.9, "unit": "%"},
      {"measurement": "viability, T/C", "setting": "second compound 0.0316 µM, first compound 3.16 µM", "value": 60.1, "unit": "%"},
      {"measurement": "viability, T/C", "setting": "second compound 0.0316 µM, first compound 10 µM", "value": 67.9, "unit": "%"},
      {"measurement": "viability, T/C", "setting": "second compound 0.1 µM, first compound 0.0316 µM", "value": 51.3, "unit": "%"},
      {"measurement": "viability, T/C", "setting": "second compound 0.1 µM, first compound 0.1 µM", "value": 45.8, "unit": "%"},
      {"measurement": "viability, T/C", "setting": "second compound 0.1 µM, first compound 0.316 µM", "value": 39.8, "unit": "%"},
      {"measurement": "viability, T/C", "setting": "second compound 0.1 µM, first compound 1 µM", "value": 57.4, "unit": "%"},
      {"measurement": "viability, T/C", "setting": "second compound 0.1 µM, first compound 3.16 µM", "value": 51.5, "unit": "%"},
      {"measurement": "viability, T/C", "setting": "second compound 0.1 µM, first compound 10 µM", "value": 46.6, "unit": "%"},
      {"measurement": "viability, T/C", "setting": "second compound 0.316 µM, first compound 0.0316 µM", "value": 17.9, "unit": "%"},
      {"measurement": "viability, T/C", "setting": "second compound 0.316 µM, first compound 0.1 µM", "value": 17.9, "unit": "%"},
      {"measurement": "viability, T/C", "setting": "second compound 0.316 µM, first compound 0.316 µM", "value": 16, "unit": "%"},
      {"measurement": "viability, T/C", "setting": "second compound 0.316 µM, first compound 1 µM", "value": 18.2, "unit": "%"},
      {"measurement": "viability, T/C", "setting": "second compound 0.316 µM, first compound 3.16 µM", "value": 17.4, "unit": "%"},
      {"measurement": "viability, T/C", "setting": "second compound 0.316 µM, first compound 10 µM", "value": 22.6, "unit": "%"},
      {"measurement": "viability, T/C", "setting": "second compound 1 µM, first compound 0.0316 µM", "value": 2.53, "unit": "%"},
      {"measurement": "viability, T/C", "setting": "second compound 1 µM, first compound 0.1 µM", "value": 3.03, "unit": "%"},
      {"measurement": "viability, T/C", "setting": "second compound 1 µM, first compound 0.316 µM", "value": 3.22, "unit": "%"},
      {"measurement": "viability, T/C", "setting": "second compound 1 µM, first compound 1 µM", "value": 3.64, "unit": "%"},
      {"measurement": "viability, T/C", "setting": "second compound 1 µM, first compound 3.16 µM", "value": 5.21, "unit": "%"},
      {"measurement": "viability, T/C", "setting": "second compound 1 µM, first compound 10 µM", "value": 5.85, "unit": "%"},
      {"measurement": "viability, T/C", "setting": "second compound 3.16 µM, first compound 0.0316 µM", "value": 2.77, "unit": "%"},
      {"measurement": "viability, T/C", "setting": "second compound 3.16 µM, first compound 0.1 µM", "value": 2.98, "unit": "%"},
      {"measurement": "viability, T/C", "setting": "second compound 3.16 µM, first compound 0.316 µM", "value": 3.49, "unit": "%"},
      {"measurement": "viability, T/C", "setting": "second compound 3.16 µM, first compound 1 µM", "value": 3.29, "unit": "%"},
      {"measurement": "viability, T/C", "setting": "second compound 3.16 µM, first compound 3.16 µM", "value": 5.91, "unit": "%"},
      {"measurement": "viability, T/C", "setting": "second compound 3.16 µM, first compound 10 µM", "value": 5.6, "unit": "%"},
      {"measurement": "viability, T/C", "setting": "second compound 10 µM, first compound 0.0316 µM", "value": 3.45, "unit": "%"},
      {"measurement": "viability, T/C", "setting": "second compound 10 µM, first compound 0.1 µM", "value": 3.36, "unit": "%"},
      {"measurement": "viability, T/C", "setting": "second compound 10 µM, first compound 0.316 µM", "value": 3.83, "unit": "%"},
      {"measurement": "viability, T/C", "setting": "second compound 10 µM, first compound 1 µM", "value": 3.24, "unit": "%"},
      {"measurement": "viability, T/C", "setting": "second compound 10 µM, first compound 3.16 µM", "value": 4.22, "unit": "%"},
      {"measurement": "viability, T/C", "setting": "second compound 10 µM, first compound 10 µM", "value": 4.53, "unit": "%"}
    ]}
  ]
}
